The text below walks through data of ChEMBL document CHEMBL5096151, “Phytocannabinoid Pharmacology: Medicinal Properties of Cannabis sativa Constituents Aside from the "Big Two"” (J Nat Prod, 2021).

Usually EC50 stands for the concentration that produces a half-maximal response. Broadly, the IC50 is the concentration that inhibits the measured activity by half.

Assay [1] concerns the target T1, Transient receptor potential cation channel subfamily V member 1 (Homo sapiens, UniProt Q8NER1). Nature of the assay: Agonist activity at ionomycin-stimulated TRPV1 (unknown origin) activation.
Assay [2] has as its target T1, Transient receptor potential cation channel subfamily V member 1. The experiment in a line: Agonist activity at ionomycin-stimulated TRPV1 (unknown origin) activation assessed as efficacy relative to control.
The target is the same in assay [3]. Nature of the assay: Agonist activity at ionomycin-stimulated TRPV1 (unknown origin) channel desensitization in presence of capsaicin.
For assay [4], the target named is T2, Transient receptor potential cation channel subfamily V member 2 (Homo sapiens) (UniProt Q9Y5S1).
T2 sequence (whole entry): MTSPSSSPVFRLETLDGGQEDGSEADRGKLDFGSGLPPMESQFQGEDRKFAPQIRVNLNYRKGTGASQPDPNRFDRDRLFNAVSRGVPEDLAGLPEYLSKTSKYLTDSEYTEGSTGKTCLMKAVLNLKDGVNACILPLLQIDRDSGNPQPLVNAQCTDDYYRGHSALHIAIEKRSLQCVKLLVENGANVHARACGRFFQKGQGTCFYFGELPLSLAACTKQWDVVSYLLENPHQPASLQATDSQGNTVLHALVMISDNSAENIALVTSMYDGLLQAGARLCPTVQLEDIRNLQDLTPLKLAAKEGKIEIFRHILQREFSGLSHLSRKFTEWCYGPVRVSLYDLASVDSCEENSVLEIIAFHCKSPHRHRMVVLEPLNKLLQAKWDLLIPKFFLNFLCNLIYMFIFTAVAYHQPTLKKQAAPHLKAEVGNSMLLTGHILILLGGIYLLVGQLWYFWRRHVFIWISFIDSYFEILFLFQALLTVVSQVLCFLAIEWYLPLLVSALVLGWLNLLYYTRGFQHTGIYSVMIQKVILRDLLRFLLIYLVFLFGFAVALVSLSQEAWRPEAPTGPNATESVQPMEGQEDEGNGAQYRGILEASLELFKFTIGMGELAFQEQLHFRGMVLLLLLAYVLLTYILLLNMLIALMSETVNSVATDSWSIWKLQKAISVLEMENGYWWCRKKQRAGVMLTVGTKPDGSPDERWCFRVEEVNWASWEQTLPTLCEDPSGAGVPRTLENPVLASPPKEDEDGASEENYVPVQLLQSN
The experiment in a line: Agonist activity at ionomycin-stimulated TRPV2 (unknown origin) activation assessed as efficacy relative to control.

In assay [5] the target is T3, Transient receptor potential cation channel subfamily V member 2 (Homo sapiens, UniProt Q9Y5S1).
T3 sequence (Q9Y5S1 whole entry): T2 sequence (whole entry)
Nature of the assay: Agonist activity at ionomycin-stimulated TRPV2 (unknown origin) channel desensitization in presence of lysophosphatidylcholine.

Assay [6] deals with T4, Transient receptor potential cation channel subfamily V member 3 (Homo sapiens, UniProt Q8NET8).
T4 sequence (Q8NET8 whole entry): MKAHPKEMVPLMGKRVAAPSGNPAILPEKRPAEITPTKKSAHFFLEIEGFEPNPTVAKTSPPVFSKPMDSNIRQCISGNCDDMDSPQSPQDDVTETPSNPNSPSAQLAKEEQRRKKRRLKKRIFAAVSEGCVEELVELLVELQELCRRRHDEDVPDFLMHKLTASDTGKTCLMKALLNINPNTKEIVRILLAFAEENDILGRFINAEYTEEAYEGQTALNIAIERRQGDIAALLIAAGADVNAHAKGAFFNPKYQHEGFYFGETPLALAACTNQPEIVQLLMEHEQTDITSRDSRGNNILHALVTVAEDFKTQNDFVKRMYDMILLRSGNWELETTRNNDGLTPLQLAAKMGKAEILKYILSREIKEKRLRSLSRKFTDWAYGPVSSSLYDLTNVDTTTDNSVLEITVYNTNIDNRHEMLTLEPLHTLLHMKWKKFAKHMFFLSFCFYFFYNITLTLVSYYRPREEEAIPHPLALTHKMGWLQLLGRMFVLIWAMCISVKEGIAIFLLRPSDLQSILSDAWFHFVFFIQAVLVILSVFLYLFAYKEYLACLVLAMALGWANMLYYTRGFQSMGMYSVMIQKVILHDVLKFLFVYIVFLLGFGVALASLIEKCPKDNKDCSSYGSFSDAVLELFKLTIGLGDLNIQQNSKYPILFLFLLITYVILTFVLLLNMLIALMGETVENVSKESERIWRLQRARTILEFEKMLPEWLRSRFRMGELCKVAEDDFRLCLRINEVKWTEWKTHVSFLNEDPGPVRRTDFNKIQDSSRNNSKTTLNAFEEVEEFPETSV
The experiment in a line: Agonist activity at ionomycin-stimulated TRPV3 (unknown origin) activation.

For assay [7], the target named is T5, Transient receptor potential cation channel subfamily V member 3 (Homo sapiens) (UniProt Q8NET8).
T5 sequence (whole entry): T4 sequence (Q8NET8 whole entry)
Nature of the assay: Agonist activity at ionomycin-stimulated TRPV3 (unknown origin) activation assessed as efficacy relative to control.

Assay [8] deals with T4, Transient receptor potential cation channel subfamily V member 3. Nature of the assay: Agonist activity at ionomycin-stimulated TRPV3 (unknown origin) channel desensitization in presence of carvacrol.
Assay [9] deals with T6, Transient receptor potential cation channel subfamily V member 4 (Homo sapiens, UniProt Q9HBA0). The experiment in a line: Agonist activity at ionomycin-stimulated TRPV4 (unknown origin) activation.
The target of assay [10] is T6, Transient receptor potential cation channel subfamily V member 4. The experiment in a line: Agonist activity at ionomycin-stimulated TRPV4 (unknown origin) activation assessed as efficacy relative to control.
Assay [11] shares this target. The experiment in a line: Agonist activity at ionomycin-stimulated TRPV4 (unknown origin) channel desensitization in presence of 4alphaPDD.
For assay [12], the target named is T7, Transient receptor potential cation channel subfamily A member 1 (Homo sapiens, UniProt O75762). The experiment in a line: Agonist activity at TRPA1 (unknown origin) activation.
Assay [13] concerns the target T7, Transient receptor potential cation channel subfamily A member 1. The experiment in a line: Agonist activity at TRPA1 (unknown origin) activation assessed as efficacy relative to control. The following applies: filed as agonist.
The target is the same in assay [14]. Nature of the assay: Agonist activity at TRPA1 (unknown origin) channel desensitization in presence of isothiocyanate.
In assay [15] the target is Transient receptor potential cation channel subfamily M member 8 (Homo sapiens, UniProt Q7Z2W7). Nature of the assay: Antagonist activity at TRPM8 (unknown origin) ion channel.
In assay [16] the target is T3, Transient receptor potential cation channel subfamily V member 2. The experiment in a line: Agonist activity at ionomycin-stimulated TRPV2 (unknown origin) activation.
Assay [17] has as its target T7, Transient receptor potential cation channel subfamily A member 1. Nature of the assay: Agonist activity at TRPA1 (unknown origin) channel desensitization in presence of icilin.

T7 sequence (O75762 whole entry): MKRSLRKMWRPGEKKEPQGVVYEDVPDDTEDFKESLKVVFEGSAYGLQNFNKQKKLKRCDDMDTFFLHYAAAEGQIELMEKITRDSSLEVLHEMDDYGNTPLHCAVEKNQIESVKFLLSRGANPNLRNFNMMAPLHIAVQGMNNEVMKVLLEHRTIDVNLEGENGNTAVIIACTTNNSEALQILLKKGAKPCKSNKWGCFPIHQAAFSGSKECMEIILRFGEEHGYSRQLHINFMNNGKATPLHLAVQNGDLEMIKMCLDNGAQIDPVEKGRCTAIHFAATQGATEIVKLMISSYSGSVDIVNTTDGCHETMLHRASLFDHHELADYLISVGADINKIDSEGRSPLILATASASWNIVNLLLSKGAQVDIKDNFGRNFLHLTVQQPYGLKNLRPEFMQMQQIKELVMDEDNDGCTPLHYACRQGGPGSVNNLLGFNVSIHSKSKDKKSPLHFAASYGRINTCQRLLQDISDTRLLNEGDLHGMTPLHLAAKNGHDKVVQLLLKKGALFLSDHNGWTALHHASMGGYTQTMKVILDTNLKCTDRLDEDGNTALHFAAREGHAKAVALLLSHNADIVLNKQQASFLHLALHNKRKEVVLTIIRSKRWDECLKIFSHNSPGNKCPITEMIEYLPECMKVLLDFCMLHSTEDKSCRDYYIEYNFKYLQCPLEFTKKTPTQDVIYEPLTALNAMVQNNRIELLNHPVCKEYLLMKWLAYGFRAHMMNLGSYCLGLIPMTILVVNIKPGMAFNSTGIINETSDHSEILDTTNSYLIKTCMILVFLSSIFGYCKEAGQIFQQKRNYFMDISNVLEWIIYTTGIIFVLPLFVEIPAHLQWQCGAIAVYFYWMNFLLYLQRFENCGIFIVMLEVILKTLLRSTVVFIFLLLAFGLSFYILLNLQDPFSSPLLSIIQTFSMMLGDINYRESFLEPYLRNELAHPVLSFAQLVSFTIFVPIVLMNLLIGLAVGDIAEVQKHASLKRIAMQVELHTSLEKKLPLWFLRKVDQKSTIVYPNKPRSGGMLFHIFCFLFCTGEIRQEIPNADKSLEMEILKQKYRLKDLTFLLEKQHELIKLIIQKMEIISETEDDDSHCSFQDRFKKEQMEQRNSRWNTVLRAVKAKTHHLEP
T1 sequence (Q8NER1 whole entry): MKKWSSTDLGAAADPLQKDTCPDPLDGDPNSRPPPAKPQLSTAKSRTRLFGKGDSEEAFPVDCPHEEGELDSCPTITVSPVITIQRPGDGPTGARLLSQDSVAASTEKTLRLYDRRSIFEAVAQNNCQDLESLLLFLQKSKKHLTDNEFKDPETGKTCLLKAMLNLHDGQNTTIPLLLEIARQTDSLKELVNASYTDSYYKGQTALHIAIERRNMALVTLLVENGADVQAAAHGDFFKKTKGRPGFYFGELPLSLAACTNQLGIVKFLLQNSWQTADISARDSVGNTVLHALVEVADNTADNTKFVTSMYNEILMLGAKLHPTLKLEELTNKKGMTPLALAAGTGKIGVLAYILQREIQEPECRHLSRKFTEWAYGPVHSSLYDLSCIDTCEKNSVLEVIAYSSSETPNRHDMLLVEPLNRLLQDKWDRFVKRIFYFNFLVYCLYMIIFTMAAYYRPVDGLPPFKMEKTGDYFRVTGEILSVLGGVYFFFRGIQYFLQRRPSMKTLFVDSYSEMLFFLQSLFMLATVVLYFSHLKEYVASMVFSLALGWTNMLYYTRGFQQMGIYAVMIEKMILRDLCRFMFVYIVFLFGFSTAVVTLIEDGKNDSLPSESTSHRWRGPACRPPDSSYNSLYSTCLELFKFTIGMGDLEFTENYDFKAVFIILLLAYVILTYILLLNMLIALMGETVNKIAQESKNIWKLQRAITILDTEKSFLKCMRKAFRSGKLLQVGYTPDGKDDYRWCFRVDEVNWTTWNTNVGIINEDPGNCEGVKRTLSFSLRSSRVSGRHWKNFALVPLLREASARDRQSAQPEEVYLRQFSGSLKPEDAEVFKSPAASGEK
T6 sequence (Q9HBA0 whole entry): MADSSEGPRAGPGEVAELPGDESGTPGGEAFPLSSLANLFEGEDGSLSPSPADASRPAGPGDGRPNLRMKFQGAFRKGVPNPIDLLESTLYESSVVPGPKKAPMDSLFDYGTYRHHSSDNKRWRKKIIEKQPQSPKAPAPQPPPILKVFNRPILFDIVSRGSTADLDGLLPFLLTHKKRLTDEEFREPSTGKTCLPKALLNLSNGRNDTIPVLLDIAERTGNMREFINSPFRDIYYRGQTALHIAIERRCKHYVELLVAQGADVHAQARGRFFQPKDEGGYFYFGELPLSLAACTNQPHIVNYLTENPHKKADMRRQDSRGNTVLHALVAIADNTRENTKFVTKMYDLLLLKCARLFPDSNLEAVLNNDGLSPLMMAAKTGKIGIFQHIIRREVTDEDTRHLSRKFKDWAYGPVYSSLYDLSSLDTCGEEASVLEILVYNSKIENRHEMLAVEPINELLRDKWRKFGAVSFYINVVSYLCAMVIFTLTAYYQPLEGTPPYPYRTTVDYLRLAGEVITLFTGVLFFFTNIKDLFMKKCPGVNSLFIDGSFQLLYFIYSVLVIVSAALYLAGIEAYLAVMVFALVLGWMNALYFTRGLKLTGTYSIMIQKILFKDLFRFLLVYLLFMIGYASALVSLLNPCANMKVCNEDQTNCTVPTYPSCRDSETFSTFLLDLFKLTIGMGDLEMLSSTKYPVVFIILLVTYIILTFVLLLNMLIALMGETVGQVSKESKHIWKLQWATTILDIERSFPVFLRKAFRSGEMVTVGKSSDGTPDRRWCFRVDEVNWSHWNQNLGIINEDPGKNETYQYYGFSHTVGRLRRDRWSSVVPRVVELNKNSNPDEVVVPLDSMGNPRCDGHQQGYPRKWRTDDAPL
Chain of Transient receptor potential cation channel subfamily M member 8 (Q7Z2W7 whole entry): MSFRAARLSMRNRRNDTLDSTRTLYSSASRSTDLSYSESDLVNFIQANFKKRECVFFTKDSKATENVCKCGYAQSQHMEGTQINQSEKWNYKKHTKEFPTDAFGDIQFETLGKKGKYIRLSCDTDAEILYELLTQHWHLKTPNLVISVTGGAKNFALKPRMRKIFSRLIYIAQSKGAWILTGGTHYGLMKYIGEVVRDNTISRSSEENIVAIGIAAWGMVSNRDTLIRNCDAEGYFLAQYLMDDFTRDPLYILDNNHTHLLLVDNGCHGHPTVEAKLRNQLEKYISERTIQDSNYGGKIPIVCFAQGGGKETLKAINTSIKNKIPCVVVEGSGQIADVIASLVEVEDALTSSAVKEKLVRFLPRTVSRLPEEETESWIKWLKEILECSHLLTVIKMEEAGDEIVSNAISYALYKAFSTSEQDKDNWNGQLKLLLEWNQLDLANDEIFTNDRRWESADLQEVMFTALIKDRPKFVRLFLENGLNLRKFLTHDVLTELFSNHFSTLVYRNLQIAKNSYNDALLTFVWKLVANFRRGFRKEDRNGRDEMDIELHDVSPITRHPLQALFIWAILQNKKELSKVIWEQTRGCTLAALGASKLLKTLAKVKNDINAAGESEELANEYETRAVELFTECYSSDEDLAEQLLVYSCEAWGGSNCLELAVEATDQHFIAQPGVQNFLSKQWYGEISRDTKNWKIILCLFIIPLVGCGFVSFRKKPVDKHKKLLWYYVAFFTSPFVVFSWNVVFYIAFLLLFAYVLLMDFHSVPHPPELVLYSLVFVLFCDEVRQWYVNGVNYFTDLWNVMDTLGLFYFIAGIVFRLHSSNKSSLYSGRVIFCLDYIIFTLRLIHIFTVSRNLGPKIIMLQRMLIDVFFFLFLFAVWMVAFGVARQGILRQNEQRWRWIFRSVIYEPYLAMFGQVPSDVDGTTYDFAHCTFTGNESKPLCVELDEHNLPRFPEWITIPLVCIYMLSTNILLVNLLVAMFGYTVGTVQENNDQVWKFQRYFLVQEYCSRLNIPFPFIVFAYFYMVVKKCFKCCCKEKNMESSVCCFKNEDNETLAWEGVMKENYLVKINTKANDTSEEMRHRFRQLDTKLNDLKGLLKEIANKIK

Consider `CCCCCc1cc(O)c2c(c1)OC(C)(CCC=C(C)C)C=C2` (stereo not given) [CANNABICHROMENE], for which the EC50 was 24.2 µM in [1], 1.9 µM in assay [6], 0.6 µM in assay [9] and 0.09 µM in assay [12]. For the same compound, the Efficacy is under 10% in [2]; under 10% in assay [4]; 20% in assay [7]; 23% in [10]; 119% in assay [13]. The IC50 is over 50 µM in assay [3]; 6.5 µM in assay [5]; 201 µM in [8]; 9.9 µM in [11]; 0.37 µM in [14]; 40.7 µM in [15].

As to `CCCc1cc(O)c2c(c1)OC(C)(C)c1ccc(C)cc1-2`, the Efficacy came out at 50% in assay [2] (filed as agonist); 79% in assay [4] (filed as agonist); 78% in assay [7] (filed as agonist); 37% in assay [10]; 123% in [13]. Moreover, the IC50 in [3] was 11.9 µM; in [5], 2.2 µM; in [8], 1.6 µM; in assay [11] it was 4 µM; in assay [14], 0.17 µM; in [17], 0.5 µM. Further, the EC50 is 3.1 µM in [16], 3.5 µM in [6], 7.3 µM in assay [9] and 0.2 µM in assay [12].
